From patent publication US20240238278A1, “Pharmaceutical Composition for Preventing or Treating Fibrosis” (Daewoong Pharmaceutical Co., Ltd., priority 2021, published 2024)

Columns and labels:
DHLF cell line = test: Non-clinical anti-fibrotic efficacy: Western blotting of TGF-β treated DHLF cell line; format: cell-based; settings: TGF-β 10 ng/ml, 72 hours
Experimental: 10 mM of the first component was diluted with DMSO so as to be to 100 uM. It was diluted with DMSO so as to be 10, 3, 1 uM, and 10 mM of the second component (NIN) was diluted with DMSO to be 50 nM.
A DHLF cell line (FGM™-2 Bullet Kit™, 10% FBS), which is a lung fibrosis cell line, was prepared, and cultured in a T75 Easy Flask Filter at 37° C. and 5% CO2 using FBM medium. The cultured DHLF cell line was treated with 10 ng/mL of TGF-β and the test drug alone or in combination, cultured for 72 hours, then the media was removed, the protein was extracted, and the extracted protein was quantified using the BCA Protein Assay Kit. Based on the quantitative value of each extracted protein, 10 to 20 ug of protein was subjected to Western blotting. The protein after running was transferred to the PVDF membrane. After TBS-T washing 3 times, each PVDF membrane was treated with 1 mL of ECL solution, and then the protein expression level was measured using an AI680 imager. Each band value was calculated as a numerical value normalized compared to β-actin through ImageJ, and is shown in Tables 2 and 3 and FIGS. 1 and 2 below.

[1] = test system: animal model of pulmonary fibrosis; test: Lung function evaluation (SpO2) in BLM animal model; format: in vivo, mouse; settings: BLM mice, PO, day 21, first component 10 mg/kg, NIN 60 mg/kg, PID 200 mg/kg; for SpO2 Differance / SpO2 Rate of increase: vs vehicle
Experimental: (§1) 70-100 uL of BLM solution (bleomycin 1-3 mg/kg) was administered to a lung of the acclimatized experimental animals using a catheter for 5 days or more. In accordance with the purpose of the test, the test drug was administered 7 days after BLM administration, and the drug was orally administered for 2 weeks until the 21st day of BLM administration.
This lung function evaluation is the most direct and important evaluation index that has the greatest influence on the symptoms and quality of life of patients with pulmonary fibrosis, and is an experiment that can most directly show the effect of improving lung function in an animal model of pulmonary fibrosis by measuring the oxygen concentration in the body.
On the 21st day, it was measured with a SpO2 measuring device (Berry, Veterinary Pulse Oximeter) via the abdominal side of the mouse, and the results are shown in Table 5 and FIG. 3.

[2] = test system: animal model of pulmonary fibrosis; test: Measurement of total collagen content in lung (INSOLUBLE Collagen Assay); format: in vivo, mouse; settings: BLM mice, PO, day 21, n 9; first component 10 mg/kg, NIN 60 mg/kg, PID 200 mg/kg
Experimental: as §1
In this experimental example, analysis was performed using INSOLUBLE Collagen Assay (Biocolor, S2000). After sacrifice on the 21st day, the cryopreserved lung tissue was pulverized by adding 100 uL of Fragmentation Reagent, and then, 100 uL of 37% HCl was added and incubated at 65° C. for 3 hours. The contents of the tube were shaken at 30 minute intervals to aid tissue disintegration. After centrifugation, the concentration was adjusted to 100 μL and collagen staining was proceeded to prepare a sample. Absorbance was measured at 560 nm.

[3] = test system: animal model of pulmonary fibrosis; test: Histopathology (Ashcroft score) analysis, Fibrotic Index; format: in vivo, mouse; settings: BLM mice, PO, day 21; first component 10 mg/kg, PID 200 mg/kg
Experimental: as §1
The degree of fibrosis and inflammation of the lung tissue were visually observed through a microscope, and the degree of fibrosis of lung tissue was measured with a Fibrotic Index according to normalized criteria. The higher the Fibrotic Index value, the more severe the degree and symptom of fibrosis. It is interpreted that as the value is lower, the symptom is alleviated.
On the 21st day, lung tissue was separated and stained using H&E and MT stain, and observed under a microscope at 200× magnification. The observed results were scored by Ashcroft (Hubner et al., 2008). The fibrotic index was calculated by dividing the sum of the adjusted Ashcroft field scores by the number of fields tested, and shown in Table 7 and FIG. 4.

[4] = test system: animal model of pulmonary fibrosis; test: Inflammation cell count analysis in BALF; format: in vivo; settings: BLM mice, PO, day 21; first component 10 mg/kg, NIN 60 mg/kg, PID 200 mg/kg
Experimental: as §1
At the sacrifice on the 21st day of administration, BALF (Bronchoalveolar lavage fluid) cells obtained through airway washing of mice were diluted with 1.05×PBS and attached to a slide, and then the slide was immersed and removed for 30 seconds in the order of 1, 2, 3 diff quick stain solution, and stained. It was counted based on 500 cells. Macrophages are the largest in size, mononuclear, and stained blue. Neutrophils and eosinophils form polynuclear cells, but eosinophils are stained red with eosin and distinguished from neutrophils. Lymphocytes have very less cytoplasm and are small in size as monocytes.

[5] = Measurement of change in body weight in BLM animal model; format: in vivo, mouse; set-up: unit not given here; settings: BLM mice, first component 10 mg/kg, NIN 60 mg/kg, PID 200 mg/kg
Experimental: as §1
The body weight was measured once every 0, 7, 14, 17, and 21 days for 3 weeks, and from the 14th day when the drug effect began to be noticeable after the administration, it was measured every 3 days.

[6] = Pharmacokinetic test after single oral administration in ICR mice; format: in vivo; settings: mouse, blood, ICR mice (male), 10 mg/kg
Experimental: The pharmacokinetic parameters were calculated using Excel® and WinNonlin6.1 software for the blood drug concentration according to the change over time obtained through LC-MS/MS, and changes in the blood concentration of the first component are shown in Table 11 and FIG. 9.

[7] = Table 2, first component 10 ug/ml alone
[8] = Table 3, first component 5 ug/ml alone

For O[C@H]1CCCN[C@@H]1CCCn1cnc2c(Cl)c(Cl)ccc21 [First component], the “COL1A1 Relative value (based on control)” value (DHLF cell line; [7]) was 3.26, the “SMA-α Relative value (based on control)” value (DHLF cell line; [7]) was 1.66 and the “COL1A1 Relative value (based on control)” value (DHLF cell line; [8]) was 3.84. The “SMA-α Relative value (based on control)” value (DHLF cell line; [8]) was 3.53, the “SpO2 Average value” [1] was 79.1 and the “SpO2 Differance” value [1] was 3.1. The “SpO2 Rate of increase” value [1] was 4%, the “total collagen content in lung (hydroxyproline value, ratio compared with normal group)” value [2] was 228 and the “Fibrotic Index (±SEM)” value [3] was 4.6 (±0.6). For the same molecule, the “Eosinophil count in BALF” value [4] was 0, the “Lymphocyte count in BALF” value [4] was 7 and the “Macrophage count in BALF” value [4] was 60. For the same molecule, the “Neutrophil count in BALF” value [4] was 17, the “total cell in BALF” value [4] was 84 10^4 and the “change in body weight” value ([5]; Day 0) was 0.0. For the same molecule, the “change in body weight” value ([5]; Day 7) was −10.1, the “change in body weight” value ([5]; Day 14) was −22.7 and the “change in body weight” value ([5]; Day 17) was −22.2. For the same molecule, the “change in body weight” value ([5]; Day 21) was −20.5, the AUC(0-inf) [6] was 1190 ng·h/mL and the AUC(0-t) [6] was 1070 ± 210 ng·h/mL. For the same molecule, the Cmax [6] was 263 ± 32 ng/mL, the Tmax [6] was 2.67 ± 1.15 h and the half-life [6] was 2.5 ± 2.48 h.
With Cc1ccc(=O)n(-c2ccccc2)c1 [Second component (PID), Pirfenidone] the “SpO2 Average value” [1] was 81.7, the “SpO2 Differance” value [1] was 5.7 and the “SpO2 Rate of increase” value [1] was 7%. The “SpO2 Rate of increase” value ([1]; listed as PID) was 7%, the “total collagen content in lung (hydroxyproline value, ratio compared with normal group)” value [2] was 156 and the “Fibrotic Index (±SEM)” value [3] was 3.7 (±0.7). The “Eosinophil count in BALF” value [4] was 0, the “Lymphocyte count in BALF” value [4] was 6 and the “Macrophage count in BALF” value [4] was 55. For the same molecule, the “Neutrophil count in BALF” value [4] was 12, the “total cell in BALF” value [4] was 74 10^4 and the “change in body weight” value ([5]; Day 0) was 0.0. The “change in body weight” value ([5]; Day 7) was −10.2, the “change in body weight” value ([5]; Day 14) was −22.7 and the “change in body weight” value ([5]; Day 17) was −18.1. For the same molecule, the “change in body weight” value ([5]; Day 21) was −16.5.
